In PubChem BioAssay AID212 (DTP/NCI, 2004):
Where “and” joins values, the source holds several entries; their conditions need not be identical. Identical values can stand only once. Results filed as inconclusive are left out.

System: BDF1 mice, colon carcinoma 38 sc, T/C %
Assay: NCI In Vivo Anticancer Drug Screen. Data for tumor model Colon Carcinoma 38 (subcutaneous) in B6D2F1 (BDF1) mice
Conditions: endpoint: median tumor weight (est.), higher = larger tumour
Outline: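 Ratio of survival or tumor size, compound-treated animals relative to vehicle controls, in tumor-bearing mice.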

[1] = dose: 12.5 mg/kg/injection, schedule: Q07DX002 (ip), vehicle: saline with Tween-80
[2] = dose: 25.0 mg/kg/injection, schedule: Q07DX002 (ip), vehicle: saline with Tween-80
[3] = dose: 50.0 mg/kg/injection, schedule: Q07DX002 (ip), vehicle: saline with Tween-80
[4] = dose: 100.0 mg/kg/injection, schedule: Q07DX002 (ip), vehicle: saline with Tween-80
[5] = dose: 200.0 mg/kg/injection, schedule: Q07DX002 (ip), vehicle: saline with Tween-80
[6] = dose: 400.0 mg/kg/injection, schedule: Q07DX002 (ip), vehicle: saline with Tween-80
[7] = dose: 800.0 mg/kg/injection, schedule: Q07DX002 (ip), vehicle: saline with Tween-80
[8] = dose: 25.0 mg/kg/injection, schedule: Q07DX002 (ip), vehicle: Klucel (hydroxypropylcellulose) (HPC)
[9] = dose: 50.0 mg/kg/injection, schedule: Q07DX002 (ip), vehicle: Klucel (hydroxypropylcellulose) (HPC)
[10] = dose: 100.0 mg/kg/injection, schedule: Q07DX002 (ip), vehicle: Klucel (hydroxypropylcellulose) (HPC)
[11] = dose: 200.0 mg/kg/injection, schedule: Q07DX002 (ip), vehicle: Klucel (hydroxypropylcellulose) (HPC)
[12] = dose: 400.0 mg/kg/injection, schedule: Q07DX002 (ip), vehicle: Klucel (hydroxypropylcellulose) (HPC)
[13] = dose: 25.0 mg/kg/injection, schedule: Q07DX002 (ip), vehicle: saline
[14] = dose: 50.0 mg/kg/injection, schedule: Q07DX002 (ip), vehicle: saline
[15] = dose: 100.0 mg/kg/injection, schedule: Q07DX002 (ip), vehicle: saline

CC(=O)O[C@H]1C(=O)[C@@]2(C)[C@H]([C@H](OC(=O)c3ccccc3)[C@]3(O)C[C@H](OC(=O)[C@H](O)[C@@H](NC(=O)c4ccccc4)c4ccccc4)C(C)=C1C3(C)C)[C@]1(OC(C)=O)CO[C@@H]1C[C@@H]2O
T/C (dose: 7.5 mg/kg/injection, schedule: Q07DX002 (ip), vehicle: Klucel (hydroxypropylcellulose) (HPC)): 69 % of control
T/C (dose: 30.0 mg/kg/injection, schedule: Q07DX002 (ip), vehicle: Klucel (hydroxypropylcellulose) (HPC)): 88 % of control
T/C (dose: 60.0 mg/kg/injection, schedule: Q07DX002 (ip), vehicle: Klucel (hydroxypropylcellulose) (HPC)): 106 % of control

O=C(NC1CCCCC1)OCc1c(COC(=O)NC2CCCCC2)c(-c2ccc(Cl)c(Cl)c2)n2c1CCC2
T/C [1]: 111 % of control
T/C [2]: 85 % of control
T/C [3]: 76 % of control
T/C [4]: 95 % of control
T/C [5]: 86 % of control
T/C [6]: 80 % of control

C[C@H](CCC[C@H](C)OS(=O)(=O)c1ccccc1)OS(=O)(=O)c1ccccc1
T/C [2]: 89 % of control and 91 % of control
T/C [3]: 91 % of control and 98 % of control
T/C [4]: 82 % of control
T/C [5]: 120 % of control and 100 % of control
T/C [6]: 118 % of control
T/C [7]: 116 % of control

Cc1cc2cc3cc(C)c(N)cc3nc2cc1N
T/C (dose: 6.25 mg/kg/injection, schedule: Q07DX002 (ip), vehicle: saline with Tween-80): 95 % of control
T/C [1]: 109 % of control
T/C [3]: 54 % of control
T/C [4]: 89 % of control

c1cc(OCC2CO2)ccc1OCC1CO1 (centres undefined)
T/C [8]: 76 % of control
T/C [9]: 96 % of control
T/C [3]: 113 % of control
T/C [10]: 67 % of control
T/C [4]: 94 % of control
T/C [11]: 63 % of control
T/C [5]: 82 % of control
T/C [12]: 77 % of control
T/C [6]: 102 % of control
T/C [7]: 77 % of control

C=CCc1cn(C2CC(O)C(CO)O2)c(=O)[nH]c1=O (centres undefined)
T/C [13]: 85 % of control
T/C [14]: 78 % of control
T/C [15]: 62 % of control and 65 % of control

C[C@]12CCC(=O)C=C1CC[C@@H]1[C@@H]2[C@@H](O)C[C@@]2(C)[C@H]1CC[C@]2(O)C(=O)CO
T/C (dose: 40.0 mg/kg/injection, schedule: Q07DX003 (ip), vehicle: Klucel (hydroxypropylcellulose) (HPC)): 73 % of control
T/C (dose: 80.0 mg/kg/injection, schedule: Q07DX003 (ip), vehicle: Klucel (hydroxypropylcellulose) (HPC)): 76 % of control
T/C (dose: 160.0 mg/kg/injection, schedule: Q07DX003 (ip), vehicle: Klucel (hydroxypropylcellulose) (HPC)): 123 % of control and 104 % of control
T/C [11]: 63 % of control
T/C (dose: 320.0 mg/kg/injection, schedule: Q07DX003 (ip), vehicle: Klucel (hydroxypropylcellulose) (HPC)): 118 % of control
T/C [12]: 74 % of control
T/C (dose: 640.0 mg/kg/injection, schedule: Q07DX003 (ip), vehicle: Klucel (hydroxypropylcellulose) (HPC)): 79 % of control and 103 % of control
T/C (dose: 800.0 mg/kg/injection, schedule: Q07DX002 (ip), vehicle: Klucel (hydroxypropylcellulose) (HPC)): 93 % of control
T/C (dose: 800.0 mg/kg/injection, schedule: Q07DX003 (ip), vehicle: Klucel (hydroxypropylcellulose) (HPC)): 57 % of control
T/C (dose: 1200.0 mg/kg/injection, schedule: Q07DX002 (ip), vehicle: Klucel (hydroxypropylcellulose) (HPC)): 70 % of control

CNc1nc(N(C)C)nc(N(C)C)n1
T/C (dose: 3.12 mg/kg/injection, schedule: Q07DX003 (ip), vehicle: saline): 114 % of control
T/C (dose: 6.25 mg/kg/injection, schedule: Q07DX003 (ip), vehicle: saline): 95 % of control
T/C (dose: 6.25 mg/kg/injection, schedule: Q07DX003 (ip), vehicle: water): 89 % of control
T/C (dose: 12.5 mg/kg/injection, schedule: Q07DX003 (ip), vehicle: saline): 121 % of control
T/C (dose: 12.5 mg/kg/injection, schedule: Q07DX003 (ip), vehicle: water): 104 % of control
T/C (dose: 25.0 mg/kg/injection, schedule: Q07DX003 (ip), vehicle: saline): 121 % of control
T/C (dose: 25.0 mg/kg/injection, schedule: Q07DX003 (ip), vehicle: water): 61 % of control
T/C (dose: 50.0 mg/kg/injection, schedule: Q07DX003 (ip), vehicle: saline): 114 % of control
T/C (dose: 50.0 mg/kg/injection, schedule: Q07DX003 (ip), vehicle: water): 158 % of control
T/C (dose: 100.0 mg/kg/injection, schedule: Q07DX003 (ip), vehicle: water): 108 % of control
T/C (dose: 200.0 mg/kg/injection, schedule: Q07DX003 (ip), vehicle: saline): 32 % of control
T/C (dose: 200.0 mg/kg/injection, schedule: Q07DX003 (ip), vehicle: water): 22 % of control

C=C1C(O)C2(O)OCC34C(CC5C(C)=CC(=O)C(O)C5(C)C23)OC(=O)C(OC(=O)C(C)(O)CC)C14 (centres undefined)
T/C (dose: 0.12 mg/kg/injection, schedule: Q07DX002 (ip), vehicle: saline + alcohol): 93 % of control
T/C (dose: 0.25 mg/kg/injection, schedule: Q07DX002 (ip), vehicle: saline + alcohol): 71 % of control
T/C (dose: 0.5 mg/kg/injection, schedule: Q07DX002 (ip), vehicle: saline + alcohol): 93 % of control
T/C (dose: 1.0 mg/kg/injection, schedule: Q07DX002 (ip), vehicle: saline + alcohol): 52 % of control
T/C (dose: 2.0 mg/kg/injection, schedule: Q07DX002 (ip), vehicle: saline + alcohol): 57 % of control

Cn1/c2cc/c1=C(\c1ccc(S(=O)(=O)O)cc1)c1ccc([n-]1)/C(c1ccc(S(=O)(=O)O)cc1)=c1/cc/c([nH]1)=C(\c1ccc(S(=O)(=O)O)cc1)c1ccc([n-]1)/C=2c1ccc(S(=O)(=O)O)cc1.O.O=S(=O)(O)C(F)(F)F.[Cu+2]
T/C (dose: 12.5 mg/kg/injection, schedule: Q07DX002 (ip), vehicle: saline): 79 % of control
T/C [13]: 70 % of control
T/C [14]: 77 % of control
T/C [15]: 89 % of control
T/C (dose: 200.0 mg/kg/injection, schedule: Q07DX002 (ip), vehicle: saline): 80 % of control

CN(C)/N=N/c1nc[nH]c1C(N)=O
T/C (dose: 12.5 mg/kg/injection, schedule: Q07DX002 (ip), vehicle: Klucel (hydroxypropylcellulose) (HPC)): 28 % of control
T/C [8]: 64 % of control
T/C (dose: 25.0 mg/kg/injection, schedule: Q07DX003 (ip), vehicle: Klucel (hydroxypropylcellulose) (HPC)): 75 % of control
T/C (dose: 25.0 mg/kg/injection, schedule: Q07DX003 (ip), vehicle: carboxymethylcellulose (CMC)): 37 % of control
T/C [9]: 40 % of control
T/C (dose: 50.0 mg/kg/injection, schedule: Q07DX003 (ip), vehicle: Klucel (hydroxypropylcellulose) (HPC)): 43 % of control
T/C (dose: 50.0 mg/kg/injection, schedule: Q07DX003 (ip), vehicle: carboxymethylcellulose (CMC)): 28 % of control
T/C [10]: 74 % of control and 75 % of control
T/C (dose: 100.0 mg/kg/injection, schedule: Q07DX003 (ip), vehicle: Klucel (hydroxypropylcellulose) (HPC)): 85 % of control
T/C (dose: 100.0 mg/kg/injection, schedule: Q07DX003 (ip), vehicle: carboxymethylcellulose (CMC)): 16 % of control
T/C [11]: 12 % of control and 28 % of control
T/C (dose: 200.0 mg/kg/injection, schedule: Q07DX003 (ip), vehicle: Klucel (hydroxypropylcellulose) (HPC)): 9 % of control
T/C (dose: 200.0 mg/kg/injection, schedule: Q07DX003 (ip), vehicle: carboxymethylcellulose (CMC)): 16 % of control
T/C [12]: 13 % of control and 33 % of control
T/C (dose: 400.0 mg/kg/injection, schedule: Q07DX003 (ip), vehicle: Klucel (hydroxypropylcellulose) (HPC)): 44 % of control

CCCCCCC/C=C/C(=O)OC1C(OC2C(OC(CCCCCCC)CC(=O)OC(CCCCCCC)CC(=O)O)OC(C)C(O)C2O)OC(C)C(O)C1O (centres undefined)
T/C (dose: 28.0 mg/kg/injection, schedule: Q07DX002 (ip), vehicle: Klucel (hydroxypropylcellulose) (HPC)): 79 % of control
T/C (dose: 112.0 mg/kg/injection, schedule: Q07DX002 (ip), vehicle: Klucel (hydroxypropylcellulose) (HPC)): 123 % of control
T/C (dose: 225.0 mg/kg/injection, schedule: Q07DX002 (ip), vehicle: Klucel (hydroxypropylcellulose) (HPC)): 42 % of control

O=[Te]=O
T/C [13]: 98 % of control
T/C [14]: 93 % of control
